# In PMC6767236, “Selective Cannabinoid 2 Receptor Agonists as Potential Therapeutic Drugs for the Treatment of Endotoxin-Induced Uveitis” (Molecules, 2019):
# What was measured:
# [1] = test system: adhesion of adoptively-transferred leukocytes in the iridial microcirculation; experiment: Adoptive transfer of WT leukocytes into neutrophil-depleted WT mice with EIU; assay type: in vivo, mouse; conditions: topical 1.5% w/v, 6 h post-EIU
# Protocol: For adoptive transfer experiments, calcein-AM-labelled leukocytes were visualized by fluorescence (495 nm excitation) in the iridial microcirculation using a Leica DMLM epifluorescence microscope (Leica, Wetzlar, Germany) equipped with a mercury-arc light source (LEG EBQ 100, Carl Zeiss, Jena, Germany) and captured by a CCD video camera (SIT 68, DAGE MTI, Michigan, IN, USA). Videos were recorded using WinDV Capture software (Mourek, Prague, Czech Republic) and stored on an external hard drive.
# During IVM animals were placed on a heating pad in a stereotactic frame, and Tear-Gel® (Novartis Pharmaceuticals Canada Inc., Dorval, QC, Canada) was applied to their cornea. The iris was divided into four equal quadrants by drawing two superficial lines on the cornea, lengthwise and widthwise. […] Two to four videos of each quadrant were recorded for 30 s each. Videos were analyzed off-line without knowledge of the treatment groups. […] Using ImageJ software (National Institute of Health, Bethesda, MD, USA) the number of adherent leukocytes within each vessel segment was calculated by measuring the diameter and length of vessel segment studied, assuming a cylindrical geometry of blood vessels. Adherent leukocytes were expressed as number of cells per mm^2 of endothelial surface. […] The number of rolling leukocytes was counted for 30 s and used to calculate the number of rolling leukocytes per min. […]
# [2] = Plasma protein binding (equilibrium dialysis), human plasma; assay type: in vitro ADME; conditions: pH 7.4, read-out: Plasma Protein Binding: FREE Fraction human
# Protocol: Pooled and frozen plasma from selected species were obtained from commercial suppliers […]
# (human […] and mouse […]3-C57; BioreclamationIV, NY, USA). Teflon […]
# equilibrium dialysis plates (96-well, 150 μL, half-cell capacity) and cellulose membranes (12–14 kDa molecular weight cut-off) were purchased from HT-Dialysis (Gales Ferry, Connecticut). Both biological matrix and phosphate buffer pH were adjusted to 7.4 on the day of the experiment. The reference substance was diazepam.
# The determination of unbound compound was performed using a 96-well format equilibrium dialysis device with a molecular weight cut-off membrane of 12 to 14 kDa. […]
# At equilibrium, the unbound drug concentration in the biological matrix compartment of the equilibrium dialysis apparatus is the same as the concentration of the compound in the buffer compartment. Thus, the percent unbound fraction was be calculated by determining the compound concentrations in the buffer and matrix compartments after dialysis as follows: % fraction unbound = 100 × buffer concentration after dialysis/matrix concentration after dialysis. […]
# P-glycoprotein (permeability-glycoprotein (P-gp), also known as multidrug resistance protein 1) is the most studied and best characterized drug transporter. […] The effect of P-gp was measured by expressing the efflux ratio of the unidirectional A > B and B > A Papp values. […]
smiles,measurement,setting,value
"CC(C)(C)c1nc(N2CC[C@H](O)C2)c2nnn(Cc3nnnn3C3CC3)c2n1 [RO6871304, (3S)-1-{5-tert-butyl-3-[(1-cyclopropyl-1H-tetrazol-5-yl)methyl]-3H-[1,2, 3]triazolo[4,5-d]pyrimidin-7-yl}pyrrolidin-3-ol]",decrease of LPS-induced adhesion of adoptively-transferred leukocytes compared to vehicle,[1],64 fold
same,"fraction unbound at 5 h, 1000 nM",[2],0.13
